# Data published in US20130243928A1 (priority 2007, published 2013).
# Assay: Distribution (dissolution) of resveratrol in an aliquot of wine with heating
# Format: physicochemical
# Details: heating up to about 40° C., no added alcohol or other solvent
# Text: The size, temperature and heating time for a batch of resveratrol concentrate will vary depending on how much resveratrol is needed to be added. […] Temperature can be measured by placing a thermometer in the batch of wine and timing the process.
smiles,measurement,value
"Oc1ccc(/C=C/c2cc(O)cc(O)c2)cc1 [resveratrol, trans-3,5,4′-trihydroxystilbene]",amount of resveratrol that can be distributed in an aliquot of wine,about 1.25 (wt/vol)
